Test results published in US20070149485A1, “SELECTED DOSAGE FOR THE TREATMENT OF CARDIOVASCULAR AND RELATED PATHOLOGIES” (Medicure International, Inc., priority 2005, published 2007).

Test system: high-risk patients undergoing CABG surgery with cardiopulmonary bypass
Test: Oral P5P in high-risk patients undergoing CABG surgery (randomized, double-blind, placebo-controlled): myocardial infarction and combined incidents to POD 30
Format: in vivo, human
Conditions: for Frequencies of myocardial infarction, cerebral infarction, or death, at POD 30: Myocardial infarction, cerebral infarction or death / Frequencies of myocardial infarction, cerebral infarction, or death, at POD 30: No myocardial infarction, cerebral infarction or death / Frequencies of myocardial infarction at POD 30: Myocardial Infarction / Frequencies of myocardial infarction at POD 30: No myocardial infarction: number of patients (% of group); for reducing post-CABG morbidity and mortality: CK-MB 100 ng/ml (post-hoc) as indicator; for reducing instances of myocardial infarction: vs placebo
Text: A randomized, double-blind placebo-controlled, dose-ranging, parallel-arrn multi-center study was undertaken, on high-risk patients undergoing CABG surgery with cardiopulmonary bypass.
Patients were identified as “high risk” if they had two or more of the following risk factors: • Age greater than 65 years; • Current smoker;
Approximately 900 high risk pre-CABG patients in 42 different treatment centers in North America were screened and randomized to three groups of approximately 300 patients each, prior to their bypass surgery, as follows. Patients were either placed in a control group (placebo), treated orally with 250 mg/day of P5P (250 mg/day), or treated orally with 750 mg/day of P5P (750 mg/day).
The first dose of study medication was administered at 3-10 hours prior to CABG surgery. In the event of surgery delay or rescheduling, a second pre-operative dose of P5P was administered so that all patients received study medication 3-10 hours before surgery. Treatment continued for 30 days after surgery (post operative day (POD) 30). Patients received follow-up evaluations up to and including postoperative day (POD) 4, on POD 30 and on POD 90.
Patients were measured for combined incidence of cardiovascular death, nonfatal myocardial infarction (MI), and nonfatal cerebral infarction up to and including post-operative day 30 (POD 30). Patients were also measured for nonfatal myocardial infarction alone. All deaths without an identifiable non-cardiovascular cause were considered of cardiovascular origin.
Cerebral infarction (stroke) was defined clinically as any new sudden onset focal neurological deficit lasting at least 24 hours as assessed by a neurologist and after neuroimaging (computed tomography [CT] brain scan or magnetic resonance imaging [MRI]) had excluded an intracerebral hemorrhage. All patients suspected of having a stroke or transient ischemic attack (TIA) received a neurological examination (conducted by a neurologist or internist with expertise in cerebral vascular disease) within 24 hours of onset of symptoms. All patients suspected of having a stroke were submitted to cerebral imaging.
When determining whether a patient had myocardial infarction, the following definitions were used: • A peak creatine kinase—myocardial band (CK-MB) above a certain threshold. Since different experts and different prior art clinical trials used different cut-offs for this threshold, three different thresholds were used to determine whether a patient had myocardial infarction—a post-hoc cut off threshold of 100 ng/ml (a peak CK-MB of 100 ng/ml or greater on days up to and including POD 4), a post-hoc cut off threshold of 70 ng/ml, and a predefined cut off threshold of 50 ng/ml was used; • A new q-wave evidence of myocardial infarction along with CK-MB of 35 ng/ml or above on days up to and including POD 4; • A peak CK-MB of 5× ULN (25 ng/ml) or above occurring after POD 4; • A new q-wave evidence of myocardial infarction that was not present at POD 4; or • A q-wave or non-q-wave myocardial infarction as identified by the investigator and confirmed by the Clinical Endpoint Committee. A. Myocardial Infarction Rates CK-MB Cut-off of 100 ng/ml

[1] = oral 250 mg/day, CK-MB cut-off 50 ng/ml
[2] = oral 250 mg/day, CK-MB cut-off 50 ng/ml (predefined)
[3] = oral 250 mg/day, CK-MB cut-off 70 ng/ml
[4] = oral 250 mg/day, CK-MB cut-off 70 ng/ml (post-hoc)
[5] = oral 250 mg/day, CK-MB cut-off 100 ng/ml
[6] = oral 250 mg/day, CK-MB cut-off 100 ng/ml (post-hoc)
[7] = oral 750 mg/day, CK-MB cut-off 50 ng/ml
[8] = oral 750 mg/day, CK-MB cut-off 50 ng/ml (predefined)
[9] = oral 750 mg/day, CK-MB cut-off 70 ng/ml
[10] = oral 750 mg/day, CK-MB cut-off 70 ng/ml (post-hoc)
[11] = oral 750 mg/day, CK-MB cut-off 100 ng/ml
[12] = oral 750 mg/day, CK-MB cut-off 100 ng/ml (post-hoc)

`Cc1ncc(COP(=O)(O)O)c(C=O)c1O` [P5P, 3-hydroxy-2-methyl-5-[(phosphonooxy)methyl]-4-pyridine-carboxaldehyde] was tested, and the “Frequencies of myocardial infarction, cerebral infarction, or death, at POD 30: Myocardial infarction, cerebral infarction or death” value [1] was 65 (21.6%), the “Frequencies of myocardial infarction, cerebral infarction, or death, at POD 30: No myocardial infarction, cerebral infarction or death” value [1] was 236 (78.4%) and the “Frequencies of myocardial infarction at POD 30: Myocardial Infarction” value [2] was 59 (19.6%). The “Frequencies of myocardial infarction at POD 30: No myocardial infarction” value [2] was 242 (80.4%), the “Frequencies of myocardial infarction, cerebral infarction, or death, at POD 30: Myocardial infarction, cerebral infarction or death” value [3] was 41 (13.6%) and the “Frequencies of myocardial infarction, cerebral infarction, or death, at POD 30: No myocardial infarction, cerebral infarction or death” value [3] was 260 (86.4%). The “Frequencies of myocardial infarction at POD 30: Myocardial Infarction” value [4] was 34 (11.3%), the “Frequencies of myocardial infarction at POD 30: No myocardial infarction” value [4] was 267 (88.7%) and the “Frequencies of myocardial infarction, cerebral infarction, or death, at POD 30: Myocardial infarction, cerebral infarction or death” value [5] was 31 (10.3%). For the same compound, the “Frequencies of myocardial infarction, cerebral infarction, or death, at POD 30: No myocardial infarction, cerebral infarction or death” value [5] was 270 (89.7%), the “Frequencies of myocardial infarction at POD 30: Myocardial Infarction” value [6] was 23 (7.6%) and the “Frequencies of myocardial infarction at POD 30: No myocardial infarction” value [6] was 278 (92.4%). For the same compound, the “Frequencies of myocardial infarction, cerebral infarction, or death, at POD 30: Myocardial infarction, cerebral infarction or death” value [7] was 77 (25.6%), the “Frequencies of myocardial infarction, cerebral infarction, or death, at POD 30: No myocardial infarction, cerebral infarction or death” value [7] was 224 (74.4%) and the “Frequencies of myocardial infarction at POD 30: Myocardial Infarction” value [8] was 71 (23.6%). For the same compound, the “Frequencies of myocardial infarction at POD 30: No myocardial infarction” value [8] was 230 (76.4%), the “Frequencies of myocardial infarction, cerebral infarction, or death, at POD 30: Myocardial infarction, cerebral infarction or death” value [9] was 47 (15.6%) and the “Frequencies of myocardial infarction, cerebral infarction, or death, at POD 30: No myocardial infarction, cerebral infarction or death” value [9] was 254 (84.4%). For the same compound, the “Frequencies of myocardial infarction at POD 30: Myocardial Infarction” value [10] was 38 (12.6%), the “Frequencies of myocardial infarction at POD 30: No myocardial infarction” value [10] was 263 (87.4%) and the “Frequencies of myocardial infarction, cerebral infarction, or death, at POD 30: Myocardial infarction, cerebral infarction or death” value [11] was 34 (11.3%). For the same compound, the “Frequencies of myocardial infarction, cerebral infarction, or death, at POD 30: No myocardial infarction, cerebral infarction or death” value [11] was 267 (88.7%), the “Frequencies of myocardial infarction at POD 30: Myocardial Infarction” value [12] was 23 (7.6%) and the “Frequencies of myocardial infarction at POD 30: No myocardial infarction” value [12] was 278 (92.4%). The “reducing post-CABG morbidity and mortality” value (oral 250 mg/day) was “effective”, the “reducing total incidents (myocardial infarction, cerebral infarction, or death)” value (“reducing total incidents” for short) [1] was “highly effective” and the “reducing instances of myocardial infarction” value (shortened to “reducing instances”) [1] was “highly effective”. For the same compound, the “reducing total incidents” value (oral 250 mg/day, CK-MB cut-off 70 ng/ml, better than 750 mg/day) was “highly effective”, the “reducing instances” value [3] was “highly effective” and the “reducing total incidents” value (oral 250 mg/day, CK-MB cut-off 100 ng/ml, better than 750 mg/day) was “highly effective”. The “reducing instances” value [5] was “highly effective”, the “reducing post-CABG morbidity and mortality” value (oral 750 mg/day) was “effective” and the “reducing total incidents” value [7] was “did not reduce”. The “reducing instances” value [7] was “not effective”, the “reducing total incidents” value [9] was “highly effective” and the “reducing instances” value (oral 750 mg/day, CK-MB cut-off 70 ng/ml, not as effective as 250 mg/day) was “effective”. For the same compound, the “reducing total incidents” value [11] was “highly effective”, the “reducing instances” value [11] was “highly effective” and the “effectiveness at reducing post-CABG morbidity and mortality, 250 mg/day compared with 750 mg/day” value (oral, CK-MB level greater than 50 ng/ml (pre-defined) or 70 ng/ml (post-hoc) as indicator) was “higher effectiveness”.
